Patent US20110319362A1, “STAT3 LIGANDS AND THERAPEUTIC USES THEREOF” (priority 2008, published 2011)
pIC50: −log10 of the molar value. Read-outs that look alike come from different tables or passages of the source.

Key:
[1] = tested on: MDA-MB-231 cancer cell line; experiment: Cell growth assay (WST-8); type: cell-based; settings: Homo sapiens, MDA-MB-231, 96 h; WST-8, 4 days; read-out: Inhibition of cell growth IC50, MDA-MB-231 cancer cell line
Experimental: (§1) The effect of STAT3 compounds on cell growth was evaluated by a WST-8 [2-(2-methoxy-4-nitrophenyl)-3-(4-nitrophenyl)-5-(2,4-disulfophenyl)-2H-tetrazolium, monosodium salt assay (Dojindo Molecular Technologies, Inc). Cells (3000-4000 cells in each well) were cultured in 96-well tissue culture plates in medium (200 μL) containing various concentrations of STAT3 compounds for 4 days. At the end of incubation, WST-8 dye (20 μL) was added to each well and incubated for an additional 1-3 h, and then the absorbance was measured in a microplate reader (Molecular Devices) at 450 nm. Cell growth inhibition was evaluated as the ratio of the absorbance of the sample to that of the control.

[2] = tested on: MDA-MB-468 cancer cell line; experiment: Cell growth assay (WST-8); type: cell-based; settings: Homo sapiens, MDA-MB-468, 96 h; WST-8, 4 days; read-out: Inhibition of cell growth IC50, MDA-MB-468 cancer cell line
Experimental: as §1

STAT3 protein = molecular target: T1, STAT3 protein (Homo sapiens, UniProt P40763); experiment: In vitro competitive STAT3 binding assay (fluorescence polarization)
T1 construct: human STAT3 protein (residues 122-722) fused to His-tag; His-tag
From the text: To quantitatively determine the binding affinities of STAT3 inhibitors to STAT3 protein, a sensitive and quantitative in vitro binding assay was developed based upon fluorescence polarization (FP) method. For this FP assay, 5-carboxyfluorescein (5-Fam) was coupled to a phosphopeptide (phospho-Tyr-Leu-Pro-Gln-Thr-Val-amide) with two beta-alanine and one glycine residues as the spacer between 5-Fam and the phosphopeptide to obtain 5-Fam-beta-Ala-beta-Ala-Gly-phospho-Tyr-Leu-Pro-Gln-Thr-Val-amide as the fluorescently tagged tracer, which was named as STT2 peptide. […] The recombinant human STAT3 protein (residues 122-722) fused to His-tag was stable and soluble.
Competitive binding experiments were carried out using 150 nM of STAT3 protein and 5 nM of STT2 peptide with different concentrations of a tested STAT3 inhibitor. For each experiment, two controls were included. One control contained STAT3 protein and STT2 peptide, and the second control contained STT2 peptide only. The polarization values were measured after 2-3 hours of incubation using an ULTRA READER (Tecan U.S. Inc., Research Triangle Park, N.C.). IC50 values, the inhibitor concentration at which 50% of the fluorescently tagged STT2 peptide is displaced by STAT3 inhibitors, was determined from a plot using nonlinear least-squares analysis using GRAPHPAD PRISM software (GraphPad Software, Inc., San Diego, Calif.). […]

[3] = FP competitive binding, fluorescently tagged STT2 peptide tracer, read-out: Binding affinities to STAT3 IC50

T1 sequence (P40763 122-722): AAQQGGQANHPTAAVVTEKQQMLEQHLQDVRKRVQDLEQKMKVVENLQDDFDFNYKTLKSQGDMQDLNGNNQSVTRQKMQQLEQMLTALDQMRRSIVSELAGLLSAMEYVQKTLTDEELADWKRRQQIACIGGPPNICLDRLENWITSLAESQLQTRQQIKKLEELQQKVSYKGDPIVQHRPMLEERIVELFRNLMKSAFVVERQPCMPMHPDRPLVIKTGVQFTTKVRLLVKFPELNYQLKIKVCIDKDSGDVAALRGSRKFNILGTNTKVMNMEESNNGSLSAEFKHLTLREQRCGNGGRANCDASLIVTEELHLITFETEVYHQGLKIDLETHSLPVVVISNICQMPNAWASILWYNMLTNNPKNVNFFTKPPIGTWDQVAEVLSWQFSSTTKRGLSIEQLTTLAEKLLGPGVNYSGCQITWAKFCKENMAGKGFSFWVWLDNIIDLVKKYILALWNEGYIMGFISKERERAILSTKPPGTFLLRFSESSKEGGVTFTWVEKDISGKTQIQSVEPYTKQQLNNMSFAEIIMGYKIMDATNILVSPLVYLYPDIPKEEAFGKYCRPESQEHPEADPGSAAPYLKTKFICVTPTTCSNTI

SMILES | pIC50 [1] | pIC50 [2] | pIC50 (STAT3 protein; [3]) | pIC50 (STAT3 protein)
N[C@@H](Cc1ccc(OP(=O)(O)O)cc1)C(=O)N[C@H]1CCCCC2CC[C@@H](C(=O)N[C@@H](CCC(=O)NC(c3ccccc3)(c3ccccc3)c3ccccc3)C(=O)NCc3ccccc3)N2C1=O (stereo partly drawn) | > 5.00 | > 5.00 | > 5.00 | –
NC(=O)CC[C@H](NC(=O)[C@@H]1CCC2CCCC[C@H](NC(=O)[C@@H](N)Cc3ccc(OP(=O)(O)O)cc3)C(=O)N21)C(=O)NCc1ccccc1 (stereo partly drawn) | < 4.70 | < 4.00 | – | > 6.00
CC(=O)N[C@@H](Cc1ccc(OC(C(=O)O)C(=O)O)cc1)C(=O)N[C@H]1CCCCC2CC[C@@H](C(=O)N[C@@H](CCC(N)=O)C(=O)NCc3ccccc3)N2C1=O (stereo partly drawn) | < 4.30 | < 4.00 | > 5.00 | –
O=C(CCc1ccccc1)N[C@@H](Cc1ccc(OP(=O)(O)O)cc1)C(=O)N[C@H]1CCCCC2CC[C@@H](C(=O)N[C@@H](CCC(=O)NC(c3ccccc3)(c3ccccc3)c3ccccc3)C(=O)NCc3ccccc3)N2C1=O (stereo partly drawn) | < 4.00 | < 4.30 | > 4.70 | –
CCOC(=O)COc1ccc(C[C@H](NC(C)=O)C(=O)N[C@H]2CCCCC3CC[C@@H](C(=O)N[C@@H](CCC(N)=O)C(=O)NCc4ccccc4)N3C2=O)cc1 (stereo partly drawn) | < 4.00 | < 4.00 | < 4.00 | –
CCOC(=O)C(Oc1ccc(C[C@H](NC(C)=O)C(=O)N[C@H]2CCCCC3CC[C@@H](C(=O)N[C@@H](CCC(N)=O)C(=O)NCc4ccccc4)N3C2=O)cc1)C(=O)OCC (stereo partly drawn) | < 4.52 | < 4.00 | < 4.00 | –
COP(=O)(OC)Oc1ccc(C[C@H](N)C(=O)N[C@H]2CCCCC3CC[C@@H](C(=O)N[C@@H](C)C(=O)NCc4ccccc4)N3C2=O)cc1 (stereo partly drawn) | < 4.30 | < 4.00 | – | < 4.00
CN(C)CCCCNC(=O)[C@@H]1CCC2CCCC[C@H](NC(=O)[C@H](Cc3ccc(OP(=O)(O)O)cc3)NC(=O)OCc3ccccc3)C(=O)N21 (stereo partly drawn) | < 4.00 | < 4.00 | > 4.52 | –
CP(=O)(O)Cc1ccc(CCC(=O)N[C@H]2CCCCC3CC[C@@H](C(=O)N[C@@H](CCC(N)=O)C(=O)NCc4ccccc4)N3C2=O)cc1 (stereo partly drawn) | < 4.00 | < 4.00 | < 4.00 | –
CP(=O)(O)CCCCCC(=O)N[C@H]1CCCCC2CC[C@@H](C(=O)N[C@@H](CCC(N)=O)C(=O)NCc3ccccc3)N2C1=O (stereo partly drawn) | < 4.00 | < 4.00 | < 4.00 | –
CN[C@@H](Cc1ccc(OC(C(=O)O)C(=O)O)cc1)C(=O)N[C@H]1CCCCC2CC[C@@H](C(=O)N[C@@H](CCCN)C(=O)NCc3ccccc3)N2C1=O (stereo partly drawn) | < 4.00 | < 4.00 | < 5.00 | –
CN[C@@H](Cc1ccc(OC(C(=O)O)C(=O)O)cc1)C(=O)N[C@H]1CCCCC2CC[C@@H](C(=O)N[C@@H](Cc3c[nH]cn3)C(=O)NCc3ccccc3)N2C1=O (stereo partly drawn) | < 4.00 | < 4.00 | < 5.00 | –
CN[C@H](Cc1ccc(OCP(=O)(O)O)cc1)C(=O)N[C@H]1CCCCC2CC[C@@H](C(=O)N[C@@H](Cc3c[nH]cn3)C(=O)NCc3ccccc3)N2C1=O (stereo partly drawn) | < 4.00 | < 4.00 | > 4.00 | –
CN(C)[C@@H](Cc1ccc(OP(=O)(O)O)cc1)C(=O)N[C@H]1CCCCC2CC[C@@H](C(=O)N[C@@H](CNC(=N)N)C(=O)NCc3ccccc3)N2C1=O (stereo partly drawn) | < 4.30 | < 4.00 | > 4.00 | –
CC(=O)N1CCC2CC[C@@H](C(=O)N[C@@H](CCC(N)=O)C(=O)NCc3ccccc3)N2C(=O)[C@@H](NC(=O)[C@@H](N)Cc2ccc(OP(=O)(O)O)cc2)C1 (stereo partly drawn) | < 4.30 | < 4.00 | > 5.30 | –
CN[C@@H](Cc1ccc(OP(=O)(O)O)cc1)C(=O)N[C@H]1CCCCC2CC[C@@H](C(=O)N[C@@H](Cc3c[nH]cn3)C(=O)NCc3ccccc3)N2C1=O (stereo partly drawn) | < 4.30 | < 4.00 | > 4.52 | –
CCCCCCCCCCCCCCCCNC(=O)[C@H](CCC(N)=O)NC(=O)[C@@H]1CCC2CCCC[C@H](NC(=O)[C@@H](N)Cc3ccc(OP(=O)(O)O)cc3)C(=O)N21 (stereo partly drawn) | > 4.30 | > 4.30 | < 5.30 | –
